Reference: patent US9850225B2, “Compounds useful as immunomodulators” (BRISTOL-MYERS SQUIBB COMPANY, priority 2014, dated 2017)

Biological target: PD-1/PD-L1 interaction (PD-1-Ig / PD-L1-His) (Homo sapiens (Human), UniProt Q9NZQ7)
Assay: PD-1/PD-L1 Homogenous Time-Resolved Fluorescence (HTRF) binding assay
Settings: PD-1/PD-L1 HTRF binding assay; value given as range class; read-out: Range or IC50
Outline: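 HTRF detection used 1 nM europium-cryptate anti-Ig and 20 nM APC anti-His. Compounds first saw 10 nM PD-L1-His for 15 min, and 20 nM PD-1-Ig was then added for another 15 min. Buffer was dPBS plus 0.1% BSA and 0.05% Tween-20. All concentrations are final.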

Chain of PD-1/PD-L1 interaction (PD-1-Ig / PD-L1-His) (Q9NZQ7 other isoform, or with tags, fused parts or gaps): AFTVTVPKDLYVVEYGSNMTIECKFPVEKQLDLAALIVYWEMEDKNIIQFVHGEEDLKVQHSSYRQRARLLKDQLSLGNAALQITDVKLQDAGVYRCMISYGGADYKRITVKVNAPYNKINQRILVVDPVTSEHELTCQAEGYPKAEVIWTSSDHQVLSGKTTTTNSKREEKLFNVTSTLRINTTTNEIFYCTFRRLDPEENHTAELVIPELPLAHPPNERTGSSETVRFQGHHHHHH

SMILES	IC50 [nM]
CC(=O)NCCNCc1ccc(OCc2cccc(-c3ccccc3)c2C)cc1OCc1ccc2ccccc2c1 [Example 1056, N-(2-((4-((2-methyl-[1,1′-biphenyl]-3-yl)methoxy)-2-(naphthalen-2-ylmethoxy)benzyl)amino)ethyl)acetamide]	100 to 20000
Cc1cc(CN[C@](C)(CO)C(=O)O)c(OCc2cccc(C#N)c2)cc1OCc1cccc(-c2ccc3c(c2)OCCO3)c1C [Example 1269, (R)-2-((2-((3-cyanobenzyl)oxy)-4-((3-(2,3-dihydrobenzo[b][1,4]dioxin-6-yl)-2-methylbenzyl)oxy)-5-methylbenzyl)amino)-3-hydroxy-2-methylpropanoic acid]	0.6 to 10
Cc1c(C#N)cncc1COc1cc(OCc2cccc(-c3ccccc3)c2C)ccc1CN[C@H](CO)C(=O)O [Example 1324, (R)-2-(2-((5-cyano-4-methylpyridin-3-yl)methoxy)-4-((2-methylbiphenyl-3-yl)methoxy)benzylamino)-3-hydroxypropanoic acid]	10 to 100
N#Cc1cccc(COc2cc(OCc3cccc(-c4ccc5c(c4)OCCO5)c3Cl)ccc2CNC[C@@H](O)CC(=O)O)c1 [Example 1147, (S)-4-(4-(2-chloro-3-(2,3-dihydrobenzo[b][1,4]dioxin-6-yl)benzyloxy)-2-(3-cyanobenzyloxy)benzylamino)-3-hydroxybutanoic acid]	0.6 to 10
Cc1c(COc2cc(OCc3cccc(C#N)c3)c(CN[C@H](C(=O)O)[C@H](C)O)cc2Cl)cccc1-c1ccc2c(c1)OCCO2 [Example 1189, (2S,3S)-2-((5-chloro-2-((3-cyanobenzyl)oxy)-4-((3-(2,3-dihydrobenzo[b][1,4]dioxin-6-yl)-2-methylbenzyl)oxy)benzyl)amino)-3-hydroxybutanoic acid]	0.6 to 10
Cc1c(COc2cc(OCc3cccc(C#N)c3)c(CN[C@@H](Cc3cccc(C#N)c3)C(=O)O)cc2Cl)cccc1-c1ccc2c(c1)OCCO2 [Example 1217, (S)-2-((5-chloro-2-((3-cyanobenzyl)oxy)-4-((3-(2,3-dihydrobenzo[b][1,4]dioxin-6-yl)-2-methylbenzyl)oxy)benzyl)amino)-3-(3-cyanophenyl)propanoic acid]	10 to 100
CC(=O)NCCNCc1ccc(OCc2cccc(-c3ccccc3)c2C)cc1OCc1c(F)cccc1F [Example 1049, N-(2-((2-((2,6-difluorobenzyl)oxy)-4-((2-methyl-[1,1′-biphenyl]-3-yl)methoxy)benzyl)amino)ethyl)acetamide]	100 to 20000
C[C@](CO)(NCc1cc(Cl)c(OCc2cccc(-c3ccc4c(c3)OCCO4)c2C#N)cc1OCc1cccc(C#N)c1)C(=O)O [Example 1241, (R)-2-((5-chloro-4-((2-cyano-3-(2,3-dihydrobenzo[b][1,4]dioxin-6-yl)benzyl)oxy)-2-((3-cyanobenzyl)oxy)benzyl)amino)-3-hydroxy-2-methylpropanoic acid]	0.6 to 10
Cc1c(COc2cc(OCc3cccc(C#N)c3)c(CNC(Cc3cccc(O)c3)C(=O)O)cc2Cl)cccc1-c1ccc2c(c1)OCCO2 (stereo not drawn) [Example 1159, 2-((5-chloro-2-((3-cyanobenzyl)oxy)-4-((3-(2,3-dihydrobenzo[b][1,4]dioxin-6-yl)-2-methylbenzyl)oxy)benzyl)amino)-3-(3-hydroxyphenyl)propanoic acid]	10 to 100
Cc1c(COc2cc(OCc3cccc(S(C)(=O)=O)c3)c(C=O)cc2Cl)cccc1-c1ccc2c(c1)OCCO2 [Example 3020, 5-chloro-4-((3-(2,3-dihydrobenzo[b][1,4]dioxin-6-yl)-2-methylbenzyl)oxy)-2-((3-(methylsulfonyl)benzyl)oxy)benzaldehyde]	100 to 20000
CC(=O)NCCNCc1ccc(OCc2cccc(-c3ccccc3)c2C)cc1OCc1ccc(C(C)(C)C)cc1 [Example 1046, N-(2-((2-((4-(tert-butyl)benzyl)oxy)-4-((2-methyl-[1,1′-biphenyl]-3-yl)methoxy)benzyl)amino)ethyl)acetamide]	100 to 20000
CC(=O)NCCNCc1ccc(OCc2cccc(-c3ccccc3)c2C)cc1OCc1ccc(OC(F)F)cc1 [Example 1088, N-(2-((2-((4-(difluoromethoxy)benzyl)oxy)-4-((2-methyl-[1,1′-biphenyl]-3-yl)methoxy)benzyl)amino)ethyl)acetamide]	100 to 20000
COC(=O)Cc1cccc(COc2cc(OCc3cccc(-c4ccccc4)c3C)ccc2CNCCNC(C)=O)c1 [Example 1101, methyl 2-(3-((2-(((2-acetamidoethyl)amino)methyl)-5-((2-methyl-[1,1′-biphenyl]-3-yl)methoxy)phenoxy)methyl)phenyl)acetate]	100 to 20000
Cc1c(COc2cc(OCc3cncc(C#N)c3)c(CN3CCCC[C@H]3C(=O)O)cc2Br)cccc1-c1ccc2c(c1)OCCO2 [Example 1319, (S)-1-(5-bromo-2-((5-cyanopyridin-3-yl)methoxy)-4-(3-(2,3-dihydrobenzo[b][1,4]dioxin-6-yl)-2-methylbenzyloxy)benzyl)piperidine-2-carboxylic acid]	0.6 to 10
Cc1c(COc2ccc(CNC[C@@H](O)CC(=O)O)c(OCc3cccc(C#N)c3)c2)cccc1-c1ccc2c(c1)OCCO2 [Example 1121, (S)-4-(2-(3-cyanobenzyloxy)-4-(3-(2,3-dihydrobenzo[b][1,4]dioxin-6-yl)-2-methylbenzyloxy)benzylamino)-3-hydroxybutanoic acid]	0.6 to 10
CC(=O)NCCNCc1ccc(OCc2cccc(-c3ccccc3)c2C)cc1OCc1ccncc1 [Example 1111, N-(2-((4-((2-methyl-[1,1′-biphenyl]-3-yl)methoxy)-2-(pyridin-4-ylmethoxy)benzyl)amino)ethyl)acetamide]	10 to 100
Cc1cc(CN[C@@](C)(CO)C(=O)O)c(OCc2cncc(C#N)c2)cc1OCc1cccc(-c2ccc3c(c2)OCCO3)c1Cl [Example 1154, (S)-2-(4-(2-chloro-3-(2,3-dihydrobenzo[b][1,4]dioxin-6-yl)benzyloxy)-2-((5-cyanopyridin-3-yl)methoxy)-5-methylbenzylamino)-3-hydroxy-2-methylpropanoic acid]	0.6 to 10
COC(=O)c1ccc(F)c(COc2cc(OCc3cccc(-c4ccccc4)c3C)ccc2CNCCNC(C)=O)c1 [Example 1103, methyl 3-((2-(((2-acetamidoethyl)amino)methyl)-5-((2-methyl-[1,1′-biphenyl]-3-yl)methoxy)phenoxy)methyl)-4-fluorobenzoate]	100 to 20000
Cc1c(COc2cc(OCc3cccc(C#N)c3)c(CN3CCCC[C@H]3C(=O)O)cc2Br)cccc1-c1ccc2c(c1)OCCO2 [Example 1302, (S)-1-(5-bromo-2-((3-cyanobenzyl)oxy)-4-((3-(2,3-dihydrobenzo[b][1,4]dioxin-6-yl)-2-methylbenzyl)oxy)benzyl)piperidine-2-carboxylic acid]	0.6 to 10
Cc1cc(CN[C@H](CO)C(=O)O)c(OCc2cncc(C#N)c2)cc1OCc1cccc(-c2ccc3c(c2)OCCO3)c1C#N [Example 1310, (R)-2-(4-(2-cyano-3-(2,3-dihydrobenzo[b][1,4]dioxin-6-yl)benzyloxy)-2-((5-cyanopyridin-3-yl)methoxy)-5-methylbenzylamino)-3-hydroxypropanoic acid]	0.6 to 10
Cc1c(COc2cc(OCc3cncc(C#N)c3)c(CN[C@H](CO)C(=O)O)cc2Cl)cccc1-c1ccc2c(c1)OCCO2 [Example 1249, (R)-2-((5-chloro-2-((5-cyanopyridin-3-yl)methoxy)-4-((3-(2,3-dihydrobenzo[b][1,4]dioxin-6-yl)-2-methylbenzyl)oxy)benzyl)amino)-3-hydroxypropanoic acid]	0.6 to 10
Cc1c(COc2cc(OCc3cccc(C#N)c3)c(CNC(Cc3c[nH]cn3)C(=O)O)cc2Cl)cccc1-c1ccc2c(c1)OCCO2 (stereo not drawn) [Example 1164, 2-((5-chloro-2-((3-cyanobenzyl)oxy)-4-((3-(2,3-dihydrobenzo[b][1,4]dioxin-6-yl)-2-methylbenzyl)oxy)benzyl)amino)-3-(1H-imidazol-4-yl)propanoic acid]	0.6 to 10
Cc1c(COc2ccc(CN3CCCC[C@H]3C(=O)O)c(OCc3ccc(F)c(C#N)c3)c2)cccc1-c1ccccc1 [Example 1334, (S)-1-(2-((3-cyano-4-fluorobenzyl)oxy)-4-((2-methyl-[1,1′-biphenyl]-3-yl)methoxy)benzyl)piperidine-2-carboxylic acid]	0.6 to 10
Cc1c(COc2cc(OCc3cccc(C#N)c3)c(CNC(Cc3c[nH]c4ccccc34)C(=O)O)cc2Cl)cccc1-c1ccc2c(c1)OCCO2 (stereo not drawn) [Example 1192, 2-((5-chloro-2-((3-cyanobenzyl)oxy)-4-((3-(2,3-dihydrobenzo[b][1,4]dioxin-6-yl)-2-methylbenzyl)oxy)benzyl)amino)-3-(1H-indol-3-yl)propanoic acid]	100 to 20000
COc1cc(OCc2cccc(-c3ccc4c(c3)OCCO4)c2C)cc(OCc2cccc(C#N)c2)c1CN[C@@](C)(CO)C(=O)O [Example 1142, (S)-2-((2-((3-cyanobenzyl)oxy)-4-((3-(2,3-dihydrobenzo[b][1,4]dioxin-6-yl)-2-methylbenzyl)oxy)-6-methoxybenzyl)amino)-3-hydroxy-2-methylpropanoic acid]	0.6 to 10
Cc1c(COc2cc(OCc3cccc(C#N)c3)c(CN(C)[C@@H](CC(=O)O)C(=O)O)cc2Cl)cccc1-c1ccc2c(c1)OCCO2 [Example 1203, (S)-2-((5-chloro-2-((3-cyanobenzyl)oxy)-4-((3-(2,3-dihydrobenzo[b][1,4]dioxin-6-yl)-2-methylbenzyl)oxy)benzyl)(methyl)amino)succinic acid]	0.6 to 10
Cc1c(COc2ccc(CN[C@H](CO)C(=O)O)c(OCc3cncc(C#N)c3)c2)cccc1-c1ccccc1 [Example 1327, (R)-2-((2-((5-cyanopyridin-3-yl)methoxy)-4-((2-methyl-[1,1′-biphenyl]-3-yl)methoxy)benzyl)amino)-3-hydroxypropanoic acid]	0.6 to 10
